Consider 14 molecules from patent US11071731B2, “Allosteric modulators of the mu opioid receptor” (Chiromics, LLC, priority 2017, dated 2021).

SMILES strings stand for the structures. pEC50: −log10 of the molar value. Some results are limits rather than exact numbers.

For assay [1], the target named is T1, mu opioid receptor (MOR) (Homo sapiens, UniProt P35372). Nature of the assay: PathHunter β-arrestin recruitment assay, PAM mode with EC20 endomorphin-1. It is filed as cell-based. The conditions noted are these: for pEC50: read-out: β-arr. EC50. The gist of the method:
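β-Arrestin recruitment to the receptor was tracked by chemiluminescent β-galactosidase activity from complementing fragments (ED on receptor, EA on β-arrestin). Per-compound outputs were EC50 and percent maximal response.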

For assay [2], the target named is T1, mu opioid receptor (MOR). The assay is described as follows: Hit Hunter cAMP signaling assay (adenylyl cyclase inhibition), PAM mode with EC20 endomorphin-1. It is filed as cell-based.
The mark [3] stands for this setting: maximal response for β-arrestin recruitment.
[4] abbreviates: adenylyl cyclase inhibition, read-out: cAMP EC50.
Setting [5] is: maximal response for adenylyl cyclase inhibition.
[6] abbreviates: cAMP EC50, adenylyl cyclase inhibition.

As usually defined, the pEC50 is the EC50 on a negative log10 scale, so that one unit is a factor of ten. Broadly, the EC50 is the concentration needed to bring the measured effect to its halfway point. Read a low EC50 as an effect from little substance.

T1 sequence (P35372 whole entry, the tested form may be a part): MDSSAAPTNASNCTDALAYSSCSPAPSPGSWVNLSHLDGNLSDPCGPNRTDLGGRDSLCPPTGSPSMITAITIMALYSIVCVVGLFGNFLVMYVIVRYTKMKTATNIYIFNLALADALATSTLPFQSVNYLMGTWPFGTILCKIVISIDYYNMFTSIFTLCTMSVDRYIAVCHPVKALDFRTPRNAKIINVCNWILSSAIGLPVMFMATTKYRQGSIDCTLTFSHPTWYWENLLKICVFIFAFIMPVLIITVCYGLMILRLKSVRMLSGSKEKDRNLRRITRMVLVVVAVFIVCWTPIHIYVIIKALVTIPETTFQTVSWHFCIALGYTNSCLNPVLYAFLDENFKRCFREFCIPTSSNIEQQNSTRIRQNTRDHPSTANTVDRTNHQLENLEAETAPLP

As for `CCCC1CCCN(c2nc(Cl)ncc2F)C1c1cccc(C(F)(F)F)c1` (stereo not drawn) [compound 247], on mu opioid receptor (MOR) [1] (setting [3]), the “β-arr Max. Resp.” value is listed as “F (F represents a maximal response of > 60%)”. In addition, the negative-log EC50 (pEC50) at mu opioid receptor (MOR) [1] (β-arrestin recruitment) and at mu opioid receptor (MOR) [2] (setting [4]) was less than 5.68 throughout. The “cAMP Max. Resp.” value on mu opioid receptor (MOR) [2] (setting [5]) is given as “E (E represents a maximal response of 40-60%)”.

For the molecule `Oc1ncnc(N2CCCCC2c2cccc(C(F)(F)F)c2)c1F` (stereo not drawn) [compound 356], the “β-arr Max. Resp.” value at mu opioid receptor (MOR) [1] (setting [3]) is recorded as “D (D represents a maximal response of < 40%)”. Besides, the pEC50 on mu opioid receptor (MOR) [1] (β-arrestin recruitment) and on mu opioid receptor (MOR) [2] (setting [6]) was greater than 6.15 throughout. The “cAMP Max. Resp.” value on mu opioid receptor (MOR) [2] (setting [5]) was “D (D represents a maximal response of < 40%)”.

In the case of `Fc1ccc(C2CCCCN2Cc2cccc(Cl)n2)cc1Cl` (stereo not drawn) [compound 1], the “β-arr Max. Resp.” value on mu opioid receptor (MOR) [1] (setting [3]) was “F (F represents a maximal response of > 60%)”. Also, the “β-arr. Max Resp.” value at mu opioid receptor (MOR) [1] (maximal response for β-arrestin recruitment, Table 3) is recorded as 138. For the same molecule, the pEC50 at mu opioid receptor (MOR) [1] (β-arrestin recruitment, Table 3) was 6.24; on mu opioid receptor (MOR) [1] (β-arrestin recruitment), greater than 6.15; at mu opioid receptor (MOR) [2] (setting [6]), greater than 6.15. The same molecule yielded an EC50 at mu opioid receptor (MOR) [2] (cAMP EC50 (nM), adenylyl cyclase inhibition, Table 3) of 186 nM. The “cAMP Max. Resp.” value on mu opioid receptor (MOR) [2] (setting [5]) was “F (F represents a maximal response of > 60%)”. In addition, at mu opioid receptor (MOR) [2] (maximal response for adenylyl cyclase inhibition, Table 3), the “cAMP Max Resp.” value is on record as 63.

Consider `Cc1coc(C2CCCCN2c2nc(Cl)ncc2F)n1` (stereo not drawn) [compound 366], for which the “β-arr Max. Resp.” value at mu opioid receptor (MOR) [1] (setting [3]) was “D (D represents a maximal response of < 40%)”. Also, the negative-log EC50 (pEC50) on mu opioid receptor (MOR) [1] (β-arrestin recruitment) and at mu opioid receptor (MOR) [2] (setting [6]) was greater than 6.15 each time. Moreover, at mu opioid receptor (MOR) [2] (setting [5]), the “cAMP Max. Resp.” value was “D (D represents a maximal response of < 40%)”.

On to `CC1CCN(S(=O)(=O)c2ccc(Cl)cc2)C1c1ccc(F)cc1` (mixture of isomers) [Compound 95], for which, on mu opioid receptor (MOR) [1] (setting [3]), the “β-arr Max. Resp.” value was “F (F represents a maximal response of > 60%)”. In addition, the negative logarithm of the EC50 (pEC50) on mu opioid receptor (MOR) [1] (β-arrestin recruitment) and at mu opioid receptor (MOR) [2] (setting [4]) was less than 5.68 in each case. The “cAMP Max. Resp.” value at mu opioid receptor (MOR) [2] (setting [5]) is “D (D represents a maximal response of < 40%)”.

As to `OCCNc1cccc(C2CCCCN2Cc2cc(Cl)ccc2F)n1` (stereo not drawn) [compound 141], the “β-arr Max. Resp.” value at mu opioid receptor (MOR) [1] (setting [3]) is on record as “D (D represents a maximal response of < 40%)”. Further, the negative logarithm of the EC50 (pEC50) at mu opioid receptor (MOR) [1] (β-arrestin recruitment) and at mu opioid receptor (MOR) [2] (setting [4]) was less than 5.68 in each case. For the same molecule, the “cAMP Max. Resp.” value at mu opioid receptor (MOR) [2] (setting [5]) is given as “D (D represents a maximal response of < 40%)”.

For `Fc1cnc(Cl)nc1N1CCCCC1c1ccc2ncsc2c1` (stereo not drawn) [compound 341], the “β-arr Max. Resp.” value at mu opioid receptor (MOR) [1] (setting [3]) is on record as “D (D represents a maximal response of < 40%)”. In addition, the pEC50 on mu opioid receptor (MOR) [1] (β-arrestin recruitment) and at mu opioid receptor (MOR) [2] (setting [6]) was greater than 6.15 each time. In addition, on mu opioid receptor (MOR) [2] (setting [5]), the “cAMP Max. Resp.” value is “D (D represents a maximal response of < 40%)”.

With `N#Cc1ccc(C2CCCCN2S(=O)(=O)c2ccc(Cl)cc2)cc1C(F)(F)F` (racemic) [compound 49], the “β-arr Max. Resp.” value on mu opioid receptor (MOR) [1] (setting [3]) was “F (F represents a maximal response of > 60%)”. For the same molecule, the negative logarithm of the EC50 (pEC50) on mu opioid receptor (MOR) [1] (β-arrestin recruitment) and on mu opioid receptor (MOR) [2] (setting [4]) was less than 5.68 throughout. For the same molecule, the “cAMP Max. Resp.” value on mu opioid receptor (MOR) [2] (setting [5]) is on record as “F (F represents a maximal response of > 60%)”.

Consider `COc1ncc(N2CCCCC2c2cccc(F)n2)c(F)n1` (stereo not drawn) [compound 296], for which the “β-arr Max. Resp.” value at mu opioid receptor (MOR) [1] (setting [3]) is listed as “D (D represents a maximal response of < 40%)”. The negative-log EC50 (pEC50) on mu opioid receptor (MOR) [1] (β-arrestin recruitment) and on mu opioid receptor (MOR) [2] (setting [4]) was less than 5.68 in each case. In addition, the “cAMP Max. Resp.” value on mu opioid receptor (MOR) [2] (setting [5]) was “D (D represents a maximal response of < 40%)”.

With `O=S(=O)(c1ccc(Cl)cc1)N1CCCCC1c1cccc(Cl)c1` (racemic) [compound 61], the “β-arr Max. Resp.” value on mu opioid receptor (MOR) [1] (setting [3]) is given as “F (F represents a maximal response of > 60%)”. Further, the pEC50 at mu opioid receptor (MOR) [1] (β-arrestin recruitment) and at mu opioid receptor (MOR) [2] (setting [4]) was less than 5.68 in each case. Also, at mu opioid receptor (MOR) [2] (setting [5]), the “cAMP Max. Resp.” value was “E (E represents a maximal response of 40-60%)”.

For the molecule `COc1ncc(F)c(N2CCCCC2c2ccc(F)c(Cl)c2)n1` (stereo not drawn) [compound 461], the “β-arr Max. Resp.” value on mu opioid receptor (MOR) [1] (maximal response, β-arrestin recruitment) is “F (F represents a maximal response of > 60%)”. In addition, the pEC50 at mu opioid receptor (MOR) [1] (β-arrestin recruitment) and at mu opioid receptor (MOR) [2] (setting [6]) was less than 5.68 in each case. Further, at mu opioid receptor (MOR) [2] (maximal response, adenylyl cyclase inhibition), the “cAMP Max. Resp.” value is on record as “E (E represents a maximal response of 40-60%)”.

On to `Fc1cc(C2CCC(F)CN2c2nc(Cl)ncc2F)cc(C(F)(F)F)c1` (stereo not drawn) [compound 312], for which, on mu opioid receptor (MOR) [1] (setting [3]), the “β-arr Max. Resp.” value is given as “F (F represents a maximal response of > 60%)”. Also, the pEC50 at mu opioid receptor (MOR) [1] (β-arrestin recruitment) and on mu opioid receptor (MOR) [2] (setting [4]) was greater than 6.15 throughout. Further, the “cAMP Max. Resp.” value at mu opioid receptor (MOR) [2] (setting [5]) is “F (F represents a maximal response of > 60%)”.

For the molecule `Fc1ccc(C2CCCCN2Cc2cc(Cl)cc(Cl)c2)cc1Cl` (stereo not drawn) [compound 151], the “β-arr Max. Resp.” value at mu opioid receptor (MOR) [1] (setting [3]) is on record as “F (F represents a maximal response of > 60%)”. The negative logarithm of the EC50 (pEC50) on mu opioid receptor (MOR) [1] (β-arrestin recruitment) and at mu opioid receptor (MOR) [2] (setting [6]) was less than 5.68 in each case. Besides, the “cAMP Max. Resp.” value on mu opioid receptor (MOR) [2] (setting [5]) is “D (D represents a maximal response of < 40%)”.

As to `Fc1cnc(Cl)nc1N1CCCCC1c1ccc2cnnn2c1` (stereo not drawn) [compound 291], the “β-arr Max. Resp.” value on mu opioid receptor (MOR) [1] (setting [3]) was “D (D represents a maximal response of < 40%)”. Besides, the negative-log EC50 (pEC50) on mu opioid receptor (MOR) [1] (β-arrestin recruitment) and at mu opioid receptor (MOR) [2] (setting [6]) was less than 5.68 in each case. The “cAMP Max. Resp.” value on mu opioid receptor (MOR) [2] (setting [5]) is recorded as “F (F represents a maximal response of > 60%)”.
